Measured values reported in patent US10513534B2, “2′-chloro nucleoside analogs for HCV infection” (priority 2012, dated 2019).
Where two headings read alike, the source gives them in different places.

Key:
[1] = tested on: HCV genotype 1b replicon; assay: HCV replicon assay (Zluc luciferase); type: cell-based; settings: Zluc cells, 72 hours, read-out: HCV Replicon EC50
Description: Huh-7-derived cell line (Zluc) that harbors an HCV genotype 1b replicon and a luciferase reporter gene was grown in Dulbecco's Modified Eagle Medium (DMEM) supplemented with 10% fetal bovine serum, 2 mM GlutaMAX, 1% MEM nonessential amino acids, 100 IU/mL penicillin, 100 μg/mL streptomycin, and 0.5 mg/mL Geneticin® (G418). For dose response testing the cells were seeded in 96-well plates at 7.5×10^3 cells per well in a volume of 50 μL, and incubated at 37° C./5% CO2. Drug solutions were made up freshly in Huh-7 media as 2× stocks. Ten additional 5-fold dilutions were prepared from these stocks in DMEM without G418. At least three hours after Zluc cells were seeded, drug treatment was initiated by adding 50 μL of drug dilutions to the plates in duplicate. Final concentrations of drug ranged from 100 μM to […]. Cells were then incubated at 37° C./5% CO2. Alternatively, compounds were tested at two concentrations (1 μM and 10 μM). […] For this, media was removed from the plates via gentle tapping. Fifty microliters of ONE-glo luciferase assay reagent was added to each well. The plates were shaken gently for 3 min at room temperature and luminescence was measured on a Victor^3 V 1420 multilabel counter (Perkin Elmer) with a 1 second read time using a 700 nm cut-off filter. The EC50 values were calculated from dose response curves from the resulting best-fit equations determined by Microsoft Excel and XLfit 4.1 software. When screening at two fixed concentrations, the results were expressed as % inhibition at 1 μM and 10 μM.

[2] = in vitro; settings: human
[3] = Liver triphosphate pharmacokinetics after single oral dose in CD-1 mice; type: in vivo; parameters: key: + ≤ 15; 15 < ++ ≤ 50; 50 < +++ ≤ 100; 100 < ++++; BLQ = below limit of quantitation; settings: single oral dose 10 mg/kg in PEG 200;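 for Ms Liver TP AUC: pmol·h/g liver normalized to a 1 µmol/kg dose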;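 for Ms Liver TP Cmax: pmol/g liver normalized to a 1 µmol/kg dose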
Description: Internal standard solution was added to the homogenate followed by neutralization with 20% ammonium hydroxide solution and addition of 500 μL 1% formic acid. The tissue samples were extracted by weak anion exchange solid phase extraction (SPE). Post extraction, the eluates were evaporated under nitrogen, followed by reconstitution before injection onto the LC-MS/MS system.

[4] = tested on: Zluc cells; assay: Cytotoxicity evaluation, CellTiter-Blue Cell Viability Assay; settings: Zluc cells, CellTiter-Blue
[5] = Plasma nucleoside pharmacokinetics after single oral dose in CD-1 mice; type: in vivo; settings: single oral dose 10 mg/kg in PEG 200;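 for Ms Plasma nucleoside AUC: pmol·h/mL plasma normalized to a 1 µmol/kg dose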
Description: Plasma samples were analyzed for nucleoside by LC-MS/MS. The internal standard (IS) was either 2′-MeG-D3 or tiapride. For protein precipitation and extraction, each plasma sample (50 μL) was treated with 500 μL of 0.2% formic acid in acetonitrile and 20 μL of the internal standard working solution. After vortexing and centrifugation, 500 μL of the sample extracts were transferred to a new plate, dried under N2 at ˜28° C. and reconstituted with 75 μL of 0.2% FA in water. The extracts were chromatographed on an Aquasil C18 column using a gradient system of 0.2% formic acid in water and acetonitrile. The analytes were detected and quantified by tandem mass spectrometry in positive ion mode on an MDS Sciex API5000 equipped with a Turbo Ionspray® interface. The calibration range was 0.500 (LLOQ) to 200 ng/mL in mouse plasma.

Compound | EC50 ([1]; Hepatitis C virus, 72 h) | CC50 [2] | Ms Liver TP AUC [3] | Ms Liver TP Cmax [3] | EC50 [1] | CC50 [4] | Ms Plasma nucleoside AUC [5] | Ms Plasma nucleoside Cmax [5]
CCOC(=O)NCCC(C)(C)C(=O)SCCOP(=O)(NCc1ccccc1)OC[C@H]1O[C@@H](n2ccc(=O)[nH]c2=O)[C@](C)(Cl)[C@@H]1O (mixture of isomers) [Compound 51 Mixture of P-Diastereoisomers] | 0.25 to 1 µM | > 50 µM |  |  |  |  |  | 
CCOc1nc(N)nc2c1ncn2[C@@H]1O[C@H](COP(=O)(N[C@@H](C)C(=O)OC(C)C)Oc2ccccc2)[C@@H](O)[C@@]1(C)Cl (single isomer, unassigned) [Compound 17ii Diastereomer 1] | 1 to 10 µM | > 50 µM | BLQ | BLQ |  |  |  | 
CC(C)OC(=O)[C@H](C)NP(=O)(OC[C@H]1O[C@@H](n2cnc3c(=O)[nH]c(N)nc32)[C@](C)(Cl)[C@@H]1O)Oc1ccccc1 (single isomer, unassigned) [Compound 21ii Diastereomer 1] | > 10 µM | > 50 µM |  |  |  |  |  | 
C[C@H](NP(=O)(OC[C@H]1O[C@@H](n2ccc(=O)[nH]c2=O)[C@](C)(Cl)[C@@H]1O)Oc1ccccc1)C(=O)OCC(C)(C)C (single isomer, unassigned) [Compound 42ii Single Diastereoisomer] | < 0.25 µM | > 50 µM |  |  |  |  |  | 
CC(C)OC(=O)C(C)NP(=O)(OCCSC(=O)C(C)(C)C)OC[C@H]1O[C@@H](n2ccc(=O)[nH]c2=O)[C@](C)(Cl)[C@@H]1O (single isomer, unassigned) [Compound 43ii Diastereomer 2] | 0.25 to 1 µM | > 50 µM |  |  |  |  |  | 
CC(C)(CO)C(=O)SCCOP1(=O)OC[C@H]2O[C@@H](n3ccc(=O)[nH]c3=O)[C@](C)(Cl)[C@@H]2O1 (single isomer, unassigned) [Compound 46 Single Diastereoisomer] | < 0.25 µM | > 50 µM |  |  |  |  |  | 
CC(C)OC(=O)[C@H](C)NP(=O)(OC[C@H]1O[C@@H](n2ccc(N)nc2=O)[C@](C)(Cl)[C@@H]1O)Oc1ccccc1 (single isomer, unassigned) [Compound 56ii Diastereomer 1] | > 10 µM | > 50 µM |  |  |  |  |  | 
CC(C)(C)C(=O)SCCOP1(=O)OC[C@H]2O[C@@H](n3ccc(N)nc3=O)[C@](C)(Cl)[C@@H]2O1 (single isomer, unassigned) [Compound 61 Diastereomer 2] |  |  | +++ (500 < +++ ≤ 1500) | ++++ (100 < ++++) | < 0.25 µM | > 50 µM | + (+ ≤ 150) | + (+ ≤ 15)
CCCCOC(=O)[C@@H](C)NP(=O)(OC[C@H]1O[C@@H](n2ccc(=O)[nH]c2=O)[C@](C)(Cl)[C@@H]1O)Oc1ccccc1 (single isomer, unassigned) [Compound 202i Diastereomer 2] |  |  | ++++ (1500 < ++++) | ++++ (100 < ++++) | 0.25 to 1 µM | > 50 µM | ++++ (1500 < ++++) | ++++ (100 < ++++)
C[C@@H](NP(=O)(OC[C@H]1O[C@@H](n2ccc(=O)[nH]c2=O)[C@](C)(Cl)[C@@H]1O)Oc1ccccc1)C(=O)OCc1ccccc1 (single isomer, unassigned) [Compound 205i Diastereomer 2] |  |  | ++++ (1500 < ++++) | ++++ (100 < ++++) | 0.25 to 1 µM | > 50 µM | ++++ (1500 < ++++) | +++ (50 < +++ ≤ 100)
CC(C)OC(=O)[C@H](C)NP(=O)(OC[C@H]1O[C@@H](n2cc(F)c3c(N)ncnc32)[C@](C)(Cl)[C@@H]1O)Oc1ccccc1 (single isomer, unassigned) [Compound 207ii Diastereomer 1] | > 10 µM | > 50 µM |  |  |  |  |  | 
CC(C)OC(=O)[C@H](C)NP(=O)(OC[C@H]1O[C@@H](n2ccc3c(N)ncnc32)[C@](C)(Cl)[C@@H]1O)Oc1ccccc1 (single isomer, unassigned) [Compound 208ii Diastereomer 1] | > 10 µM | > 50 µM | BLQ | BLQ |  |  |  | 
CC(C)OC(=O)[C@H](C)NP(=O)(OC[C@H]1O[C@@H](n2ccc3c(N)ncnc32)[C@](C)(Cl)[C@@H]1O)Oc1ccccc1 (single isomer, unassigned) [Compound 208ii Diastereomer 2] |  |  | BLQ | BLQ | > 10 µM | > 50 µM |  | 
CCCCOC(=O)[C@H](C)NP(=O)(OC[C@H]1O[C@@H](n2ccc(=O)[nH]c2=O)[C@](C)(Cl)[C@@H]1O)Oc1ccccc1 (single isomer, unassigned; diastereomer 1) [Compound 202ii Diastereomer 1] |  |  | +++ (500 < +++ ≤ 1500) | ++++ (100 < ++++) | < 0.25 µM | > 50 µM | ++++ (1500 < ++++) | ++++ (100 < ++++)
CCOC(=O)[C@H](C)NP(=O)(OC[C@H]1O[C@@H](n2ccc(=O)[nH]c2=O)[C@](C)(Cl)[C@@H]1O)Oc1ccccc1 (single isomer, unassigned; diastereomer 1) [Compound 203ii Diastereomer 1] |  |  | +++ (500 < +++ ≤ 1500) | +++ (50 < +++ ≤ 100) | 0.25 to 1 µM | > 50 µM | +++ (500 < +++ ≤ 1500) | +++ (50 < +++ ≤ 100)
CCOC(=O)[C@H](CC(C)C)NP(=O)(OC[C@H]1O[C@@H](n2ccc(=O)[nH]c2=O)[C@](C)(Cl)[C@@H]1O)Oc1ccccc1 (single isomer, unassigned; diastereomer 1) [Compound 204ii Diastereomer 1] |  |  | ++ (150 < ++ ≤ 500) | ++ (15 < ++ ≤ 50) | 1 to 10 µM | > 50 µM | +++ (500 < +++ ≤ 1500) | +++ (50 < +++ ≤ 100)
CCCCOC(=O)[C@H](C)NP(=O)(OC[C@H]1O[C@@H](n2ccc(=O)[nH]c2=O)[C@](C)(Cl)[C@@H]1O)Oc1ccccc1 (single isomer, unassigned; diastereomer 2) [Compound 202ii Diastereomer 2] |  |  | +++ (500 < +++ ≤ 1500) | +++ (50 < +++ ≤ 100) | < 0.25 µM | > 50 µM | ++++ (1500 < ++++) | ++++ (100 < ++++)
CCOC(=O)[C@H](C)NP(=O)(OC[C@H]1O[C@@H](n2ccc(=O)[nH]c2=O)[C@](C)(Cl)[C@@H]1O)Oc1ccccc1 (single isomer, unassigned; diastereomer 2) [Compound 203ii Diastereomer 2] |  |  | ++ (150 < ++ ≤ 500) | ++ (15 < ++ ≤ 50) | 0.25 to 1 µM | > 50 µM | +++ (500 < +++ ≤ 1500) | +++ (50 < +++ ≤ 100)
CCOC(=O)[C@H](CC(C)C)NP(=O)(OC[C@H]1O[C@@H](n2ccc(=O)[nH]c2=O)[C@](C)(Cl)[C@@H]1O)Oc1ccccc1 (single isomer, unassigned; diastereomer 2) [Compound 204ii Diastereomer 2] |  |  | ++ (150 < ++ ≤ 500) | ++ (15 < ++ ≤ 50) | 0.25 to 1 µM | > 50 µM | ++++ (1500 < ++++) | ++++ (100 < ++++)
C[C@@]1(Cl)[C@H](O)[C@@H](CO)O[C@H]1n1cnc2c(N)ncnc21 [Compound 302, 2′-C-Chloro-2′-C-methyladenosine] | > 10 µM | > 50 µM |  |  |  |  |  | 
C[C@@]1(Cl)[C@H](O)[C@@H](CO)O[C@H]1n1cc(F)c2c(N)ncnc21 [Compound 303] | > 10 µM | > 50 µM |  |  |  |  |  | 
CCOc1nc(N)nc2c1ncn2[C@@H]1O[C@H](CO)[C@@H](O)[C@@]1(C)Cl [Compound 304] | > 10 µM | > 50 µM |  |  |  |  |  | 
C[C@@]1(Cl)[C@H](O)[C@@H](CO)O[C@H]1c1ccc2c(N)ncnn12 [Compound 305] | > 10 µM | > 50 µM |  |  |  |  |  | 
C[C@@]1(Cl)[C@H](O)[C@@H](CO)O[C@H]1n1ccc(N)nc1=O [Compound 306] | > 10 µM | > 50 µM |  |  |  |  |  | 
